Measurements taken from patent US20020137929A1, “1 - (3-heterocyclylphenyl) isothiourea, -isourea, -guanidine and -amidine herbicidal agents” (Intellectual Property Department, BASF Aktiengesellschaft, priority 1998, published 2002).

Assays:
AMBEL (Ragweed, Common) = assay: Preemergence herbicidal evaluation; format: in vivo, Ambrosia artemisifolia; conditions: rated 4-5 weeks after treatment
Procedure, shortened: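 Seeds were mixed with potting soil and planted on about one inch of soil, then sprayed with test compound in aqueous acetone at about 0.0156 to 0.500 kg per hectare. Plants grew under standard greenhouse care and were visually rated 0-9 against untreated controls 4-5 weeks post-treatment.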

CYPIR (Rice Flatsedge) = assay: Preemergence weed control under flooded paddy conditions; format: in vivo, Cyperus iria; conditions: rated 3-4 weeks after treatment
Procedure, shortened: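 Seeds or propagules sown in top 0.5 cm of silt loam soil, flooded 1.5 to 3 cm above surface throughout. Compound in 50/50 v/v aqueous/acetone pipetted into flood water at about 0.0313 to 0.500 kg/ha. Visual 0-9 rating versus control after three to four weeks in greenhouse.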

MOOVA (Monochoria) = assay: Postemergence weed control under flooded paddy conditions; format: in vivo, Monochoria vaginalis; conditions: postemergence weeds, 3-4 weeks after treatment
Procedure, shortened: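 With weeds 3 to 5 cm tall and rice at the 1.5 to 2.5 leaf stage, containers were flooded and water held 1.5 to 3 cm above soil. Compounds in 50/50 v/v aqueous/acetone went into the flood water at about 0.0313 to 0.500 kg/ha a.i. Effects were visually rated 0–9 against controls after three to four weeks in the greenhouse.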

Row | SMILES | Herbicidal rating CYPIR (CYPIR (Rice Flatsedge); 0.0313 kg/ha) | Herbicidal rating CYPIR (CYPIR (Rice Flatsedge); 0.0625 kg/ha) | Herbicidal rating CYPIR (CYPIR (Rice Flatsedge); 0.1250 kg/ha) | Herbicidal rating CYPIR (CYPIR (Rice Flatsedge); 0.2500 kg/ha) | Herbicidal rating MOOVA (MOOVA (Monochoria); rate 0.0313 kg/ha) | Herbicidal rating MOOVA (MOOVA (Monochoria); rate 0.0625 kg/ha) | Herbicidal rating MOOVA (MOOVA (Monochoria); rate 0.1250 kg/ha) | Herbicidal rating MOOVA (MOOVA (Monochoria); rate 0.2500 kg/ha) | Preemergence herbicidal rating AMBEL (AMBEL (Ragweed, Common); rate 0.0156 kg/ha) | Preemergence herbicidal rating AMBEL (AMBEL (Ragweed, Common); rate 0.0313 kg/ha) | Preemergence herbicidal rating AMBEL (AMBEL (Ragweed, Common); rate 0.0625 kg/ha) | Preemergence herbicidal rating AMBEL (AMBEL (Ragweed, Common); rate 0.1250 kg/ha) | Preemergence herbicidal rating AMBEL (AMBEL (Ragweed, Common); rate 0.2500 kg/ha) | further results
1 | CCOC(=O)CN1C(=O)C(CC)SC1=Nc1cc(-n2c(=O)cc(C(F)(F)F)n(C)c2=O)c(F)cc1Cl (stereo not shown) [Compound 13, Ethyl 2-{{2-chloro-5-[3,6-dihydro-3-methyl-2,6-dioxo-4-(trifluoromethyl)-1(2H)-pyrimidinyl]-4-fluorophenyl}imino}-5-ethyl-4-oxo-3-thiazolidineacetate] | 0.0 | 0.0 | 0.5 | 1.0 | 9.0 | 9.0 | 9.0 | 9.0 |  |  |  |  |  | AMBEL preemergence herbicidal rating (AMBEL (Ragweed, Common); rate 0.0156 kg/ha): 0.0; AMBEL preemergence herbicidal rating (AMBEL (Ragweed, Common); rate 0.0313 kg/ha): 2.0; AMBEL preemergence herbicidal rating (AMBEL (Ragweed, Common); rate 0.0625 kg/ha): 6.0; AMBEL preemergence herbicidal rating (AMBEL (Ragweed, Common); rate 0.1250 kg/ha): 9.0; AMBEL preemergence herbicidal rating (AMBEL (Ragweed, Common); rate 0.2500 kg/ha): 9.0; Herbicidal rating CYPIR (CYPIR (Rice Flatsedge); 0.0156 kg/ha): 0.0
2 | COC(=O)CN1C(=O)CSC1=Nc1cc(-n2c(=O)cc(C(F)(F)F)n(C)c2=O)c(F)cc1Cl [Compound 17, Methyl 2-{{2-chloro-5-[3,6-dihydro-3-methyl-2,6-dioxo-4-(trifluoromethyl)-1(2H)-pyrimidinyl]-4-fluorophenyl}imino}-4-oxo-3-thiazolidineacetate] | 0.0 | 0.0 | 6.0 | 9.0 | 9.0 | 9.0 | 9.0 | 9.0 |  |  |  |  |  | AMBEL preemergence herbicidal rating (AMBEL (Ragweed, Common); rate 0.0156 kg/ha): 0.0; AMBEL preemergence herbicidal rating (AMBEL (Ragweed, Common); rate 0.0313 kg/ha): 0.7; AMBEL preemergence herbicidal rating (AMBEL (Ragweed, Common); rate 0.0625 kg/ha): 1.7; AMBEL preemergence herbicidal rating (AMBEL (Ragweed, Common); rate 0.1250 kg/ha): 4.3; AMBEL preemergence herbicidal rating (AMBEL (Ragweed, Common); rate 0.2500 kg/ha): 6.7; AMBEL preemergence herbicidal rating (AMBEL (Ragweed, Common); rate 0.5000 kg/ha): 9.0
3 | C=CCN1C(=O)CSC1=Nc1cc(-n2c(=O)cc(C(F)(F)F)n(C)c2=O)c(F)cc1Cl [Compound 27] | 3.0 | 4.0 | 6.0 | 9.0 | 9.0 | 9.0 | 9.0 | 9.0 | 0.0 | 2.0 | 2.0 | 9.0 | 7.0 | 
4 | COC(=O)CCN1C(=O)CSC1=Nc1cc(-n2c(=O)cc(C(F)(F)F)n(C)c2=O)c(F)cc1Cl [Compound 28, Methyl 2-{{2-chloro-5-[3,6-dihydro-3-methyl-2,6-dioxo-4-(trifluoromethyl)-1(2H)-pyrimidinyl]-4-fluorophenyl}imino}-4-oxo-3-thiazolidinepropionate] | 9.0 | 9.0 | 9.0 | 9.0 | 9.0 | 9.0 | 9.0 | 9.0 |  |  | 0.0 | 0.0 | 7.0 | 
5 | Cn1c(C(F)(F)F)cc(=O)n(-c2cc(N=C3SCC(=O)N3CC(=O)NS(C)(=O)=O)c(Cl)cc2F)c1=O [Compound 38, 2-{{2-Chloro-5-[3,6-dihydro-3-methyl-2,6-dioxo-4-(trifluoromethyl)-1(2H)-pyrimidinyl]-4-fluoro-phenyl}imino}-N-(methylsulfonyl)-4-oxo-3-thiazolidineacetamide] | 3.0 | 3.0 | 5.0 | 5.0 | 9.0 | 9.0 | 9.0 | 9.0 |  | 0.0 | 0.0 | 0.0 | 5.0 | 
6 | CCOC(=O)CN1C(=O)C(CC(=O)OCc2ccccc2)OC1=Nc1cc(-n2c(=O)cc(C(F)(F)F)n(C)c2=O)c(F)cc1Cl (stereo not shown) [Compound 40, 2-{{2-Chloro-5-[3,6-dihydro-3-methyl-2,6-dioxo-4-(trifluoromethyl)-1(2H)-pyrimidinyl]-4-fluorophenyl}imino}-4-oxo-3,5-oxazolidinediacetic acid, 5-benzyl ethyl ester] | 0.0 | 0.0 | 0.0 | 0.0 | 9.0 | 9.0 | 9.0 | 9.0 |  | 0.0 | 2.0 | 6.0 | 6.0 | 
7 | CCOC(=O)CN1C(=O)C(CC(=O)O)O/C1=N/c1cc(-n2c(=O)cc(C(F)(F)F)n(C)c2=O)c(F)cc1Cl (stereo not shown) [Compound 41, 2-{{2-Chloro-5-[3,6-dihydro-3-methyl-2,6-dioxo-4-(trifluoromethyl)-1(2H)-pyrimidinyl]-4-fluoro-phenyl}imino}-4-oxo-3,5-oxazolidinediacetic acid, 3-ethyl ester] | 0.0 | 0.0 | 0.0 | 4.0 | 6.0 | 9.0 | 9.0 | 9.0 | 0.0 | 1.0 | 2.0 | 9.0 | 8.0 | 
8 | C=CCN1C(=O)C(CC(=O)Nc2ccccc2)SC1=Nc1cc(-n2c(=O)cc(C(F)(F)F)n(C)c2=O)c(F)cc1Cl (stereo not shown) [Compound 44, 3-Allyl-2-{{2-chloro-5-[3,6-dihydro-3-methyl-2,6-dioxo-4-(trifluoromethyl)-1(2H)-pyrimidinyl]-4-fluorophenyl}imino}-4-oxo-5-thiazolidineacetanilide] | 5.0 | 6.0 | 6.0 | 9.0 | 4.0 | 4.0 | 7.0 | 9.0 | 0.0 | 0.0 | 0.0 | 0.0 | 2.0 | Preemergence herbicidal rating AMBEL (AMBEL (Ragweed, Common); rate 0.5000 kg/ha): 4.0
9 | CCOC(=O)CN1C(=O)CSC1=Nc1cc(N2C(=O)C3=C(CCCC3)C2=O)c(F)cc1Cl [Compound 47, Ethyl 2-{[2-chloro-5-(1-cyclohexene-1,2-dicarboximido)-4-fluorophenyl]imino}-4-oxo-3-thiazolidineacetate] | 0.0 | 0.0 | 4.0 | 6.0 | 5.0 | 6.0 | 9.0 | 9.0 | 0.0 | 0.0 | 0.0 | 0.0 | 0.0 | 
10 | CCOC(=O)CN1C(=O)C(Cc2ccccc2OC(C)C(=O)OC)SC1=Nc1cc(-n2c(=O)cc(C(F)(F)F)n(C)c2=O)c(F)cc1Cl (stereo not shown) [Compound 50, 2-{{2-Chloro-5-[3,6-dihydro-3-methyl-2,6-dioxo-4-(trifluoromethyl)-1(2H)-pyrimidinyl]-4-fluoro-phenyl}imino}-5-(o-hydroxybenzyl)-4-oxo-3-thiazolidineacetic acid, ethyl ester, ester with methyl lactate] | 0.0 | 0.0 | 0.0 | 0.0 | 0.0 | 0.0 | 3.0 | 7.0 |  |  | 0.0 | 0.0 | 0.0 | 
11 | Cn1c(C(F)(F)F)cc(=O)n(-c2cc(N=C3SCC(=O)N3[C@@H](Cc3ccccc3)C(=O)O)c(Cl)cc2F)c1=O [Compound 53, α-Benzyl-2-{{2-chloro-5-[3,6-dihydro-3-methyl-2,6-dioxo-4-(trifluoromethyl)-1(2H)-pyrimidinyl]-4-fluorophenyl}imino}-4-oxo-3-thiazolidineacetic acid, L-] | 2.0 | 2.0 | 9.0 | 9.0 | 2.0 | 2.0 | 9.0 | 9.0 |  | 0.0 | 9.0 | 9.0 | 9.0 | 
